Results: ChEMBL document CHEMBL1126548, “Methoxylation of cocaine reduces binding affinity and produces compounds of differential binding and dopamine uptake inhibitory activity: discovery of a weak cocaine "antagonist"” (J Med Chem, 1993)

How the values were obtained:
Rattus norvegicus [1] = species: Rattus norvegicus; test: Binding affinity against [3H]mazindol
Rattus norvegicus [2] = species: Rattus norvegicus; test: Compound tested for inhibitory activity against [3H]dopamine uptake in synaptosomes from rat caudate nucleus; parameters: species or system Brain
Rattus norvegicus [3] = species: Rattus norvegicus; test: Effect on cocaine inhibition of [3H]dopamine uptake at 200 uM
Rattus norvegicus [4] = species: Rattus norvegicus; test: Effect on cocaine inhibition of [3H]dopamine uptake at 50 uM
Rattus norvegicus [5] = species: Rattus norvegicus; test: Effect on cocaine inhibition of [3H]dopamine uptake
Rattus norvegicus [6] = species: Rattus norvegicus; test: Effect on cocaine inhibition of [3H]-dopamine uptake at 500 uM

SMILES	Ki (Rattus norvegicus [1]) [µM]	Ki (Rattus norvegicus [2]) [µM]	IC50 (Rattus norvegicus [3]) [µM]	IC50 (Rattus norvegicus [4]) [µM]	IC50 (Rattus norvegicus [5]) [µM]	IC50 (Rattus norvegicus [6]) [µM]
COC(=O)[C@@H]1C2C[C@H](OC)[C@H](C[C@@H]1OC(=O)c1ccccc1)N2C (mixture of isomers)	98	68				
COC(=O)[C@H]1C2[C@@H](OC)C[C@H](C[C@@H]1OC(=O)c1ccccc1)N2C (mixture of isomers)	54	200	0.936	0.501		
COC(=O)[C@H]1[C@@H](OC(=O)c2ccccc2)C[C@@H]2CC[C@H]1N2C [COCAINE]	0.28	0.32			0.336	
COC(=O)[C@@H]1C2[C@H](OC)C[C@H](C[C@@H]1OC(=O)c1ccccc1)N2C (mixture of isomers)	4.2	6.1				
COC(=O)[C@H]1C2C[C@H](OC)[C@H](C[C@@H]1OC(=O)c1ccccc1)N2C (mixture of isomers)	190	510				1.02
COC(=O)[C@H]1C2CCC(C[C@@H]1OC(=O)c1ccccc1)N2 (stereo partly drawn) [PSEUDOCOCAINE]	10.4	13.8				
COC(=O)[C@H]1C2[C@H](OC)C[C@H](C[C@@H]1OC(=O)c1ccccc1)N2C (mixture of isomers)	45	110				
